According to patent publication US7399888B2, “Anticonvulsant compounds” (priority 2006, dated 2008):

Legend:
[1] = test system: NMRI mice; experiment: Maximal electroshock (MES) induced seizure model; type: in vivo; details: tested in mixture form
Protocol: (§1) Male NMRI albino mice weighing 19-22 g were housed in an environmentally regulated room on a 12 h light: 12 h dark cycle with 25±1° C. and had free access to food and water. The use of animals in experimental protocol was approved by the research committee of the ICCS, University of Karachi, in accordance with the international guidelines for the care and use of laboratory animals. The anticonvulsant activity of compounds in mixture form was determined after intraperitoneal administration to NMRI mice weighing 19-22 g. Maximal electroshock (MES) and subcutaneous pentylenetetrazole (scPTZ) induced seizure models were used to test the anticonvulsant properties of compounds. […] Protection against HLTE in MEST predicts the ability of a testing material to prevent the spread of seizures discharge from the epileptic focus in brain in additions effectiveness in MEST correlates with efficacy in suppressing the generalized tonic-clonic and partial seizures. […] Anticonvulsant activity in the scPTZ test identifies compounds that can raise seizure threshold in the brain.

[2] = test system: NMRI mice; experiment: subcutaneous pentylenetetrazole (scPTZ) induced seizure model; type: in vivo; details: tested in mixture form
Protocol: as §1

Structure (SMILES) | prevention of convulsions in electrically-induced seizure model [1] | prevention of convulsions in chemically-induced seizure model [2]
CC(=O)/C=C1/C=C(C)CC(C)(C)C1 [Isoxylitone A, 2-Propanone 1-(3,5,5-trimethyl-2-cyclohexen-1-ylidene) (1E)] | able to prevent convulsions | able to prevent convulsions
CC(=O)/C=C1\C=C(C)CC(C)(C)C1 [Isoxylitone B, 2-Propanone, 1-(3,5,5-trimethyl-2-cyclohexen-1-ylidene)-, (1Z)] | able to prevent convulsions | able to prevent convulsions
